Like-named read-outs stand apart in the source and are kept apart here.
Experiments:
[1] = target: muscarinic acetylcholine receptors; test: inhibition of specific binding of 3H-Oxotremorine-M (3H-Oxo) to rat cortex; design: species or system rat (male Wistar); conditions: 3H-Oxotremorine 1.0 nM, 30 min, 25° C., pH 7.4
Source text: The pharmacological properties of the compounds of the invention can be illustrated by determining their capability to inhibit the specific binding of ^3 H-Oxotremorine-M (^3 H-Oxo). Birdsdall N. J. M., Hulme E. C., and Burgen A. S. V. (1980). "The Character of Muscarinic Receptors in Different Regions of the Rat Brain". Proc. Roy. Soc. London (Series B) 207,1.
^3 H-oxo labels muscarinic receptor in the CNS (with a preference for agonist domains of the receptors). Three different sites are labeled by ^3 H-Oxo. […] Using the present experimental conditions only the high and medium affinity sites are determined.
The inhibitory effects of compounds on ^3 H-oxo binding reflects the affinity for muscarinic acetylcholine receptors.
All preparations are performed at 0°-4° C. unless otherwise indicated. Fresh cortex (0.1-1 g) from male Wistar rats (150-250 g) is homogenized for 5-10 s in 10 mL […] Hepes pH: 7.4, with an Ultra-Turrax homogenizer. The homogenizer is rinsed with 10 mL of buffer and the combined suspension centrifuged for 15 min. at 40,000×g. The pellet is washed three times with buffer. In each step the pellet is homogenized as before in 2×10 mL of buffer and centrifuged for 10 min. at 40,000×g.
The final pellet is homogenized in 20 mM Hepes pH: 7.4 (100 mL per g of original tissue) and used for binding assay. Aliquots of 0.5 mL is added 25 μL of test solution and 25 μL of ^3 H-Oxotremorine (1.0 nM, final concentration) mixed and incubated for 30 min. at 25° C. Non-specific binding is determined in triplicate using arecoline (1 μg/mL, final concentration) as the test substance. After incubation samples are added 5 mL of ice-cold buffer and poured directly onto Whatman GF/C glass fiber filters under suction and immediately washed 2 times with 5 mL of ice-cold buffer. The amount of radioactivity on the filters are determined by conventional liquid scintillation counting. Specific binding is total binding minus non specific binding.
Test substances are dissolved in 10 mL water (if necessary heated on a steam-bath for less than 5 min.) at a concentration of 2.2 mg/mL. 25-75% inhibition of specific binding must be obtained before calculation of IC50. The test value will be given as IC50 (the concentration (nM) of the test substance which inhibits the specific binding of ^3 H-oxo by 50%). IC50 =(applied test substance concentration) x([…])nM where Co is specific binding in control assays and Cx is the specific binding in the test assay. (The calculations assume normal mass-action kinetics).

[2] = target: muscarinic receptor in the CNS; conditions: read-out: affinity of site labeled by ^3 H-Oxo, cited from earlier work

Row | Structure (SMILES) | IC50 [1] [µM] | also measured
1 | CCCCCCSc1nsnc1C1CC2CCC1NC2 (stereo not drawn) [Compound 28, EXO 2-Aza-6-(4-hexylthio-1,2,5-thiadiaz-3-yl)-bicyclo[2.2.2]octane] | 0.086 | –
2 | C[N+](C)(C)CC#CCN1CCCC1=O [^3 H-Oxo, ^3 H-Oxotremorine-M] | – | Kd ([2]; first of three sites (high affinity)): 0.0018 µM; Kd ([2]; second of three sites (medium affinity)): 0.02 µM; Kd ([2]; third of three sites, not determined under the present experimental conditions): 3 µM
3 | CC(C)CCCSc1nsnc1C1CC2CCC1NC2 (stereo not drawn) [Compound 18, ENDO 2-Aza-6-(4-((4-methylpentyl)thio)-1,2,5-thiadiaz-3-yl)-bicyclo[2.2.2]octane] | 0.017 | –
4 | CCCCCCOc1nsnc1C1CC2CCC1N(C)C2 (single isomer, unassigned) [Compound 8, EXO 2-Aza-6-(4-hexyloxy-1,2,5-thiadiaz-3-yl)-2-methyl-bicyclo[2.2.2]octane] | 0.277 | –
5 | CCCCCOc1nsnc1C1CC2CCC1NC2 (stereo not drawn) [Compound 31, EXO 2-aza-6-(4-pentoxy-1,2,5-thiadiaz-3-yl)-bicyclo[2.2.2]octane] | 0.161 | –
6 | FC(F)(F)c1ccc(COc2nsnc2C2CC3CCC2NC3)cc1 (stereo not drawn) [Compound 32, EXO 2-Aza-6-(4-((4-trifluoromethylphenyl)methoxy)-1,2,5-thiadiaz-3-yl)-bicyclo[2.2.2]octane] | 0.335 | –
7 | CCCCCOc1nsnc1C1CC2CCC1NC2 (stereo not drawn) [Compound 30, ENDO 2-aza-6-(4-pentoxy-1,2,5-thiadiaz-3-yl)-bicyclo[2.2.2]octane] | 0.0059 | –
8 | FC(F)(F)c1ccc(CSc2nsnc2C2CC3CCC2NC3)cc1 (stereo not drawn) [Compound 22, EXO 2-Aza-6-(4-(((4-trifluoromethyl)phenyl)methylthio)-1,2,5-thiadiaz-3-yl)-bicyclo[2.2.2]octane] | 0.68 | –
9 | CCCCCCSc1nsnc1C1CC2CCC1NC2 (stereo not drawn) [Compound 27, EXO 2-Aza-6-(4-hexylthio-1,2,5-thiadiaz-3-yl)-bicyclo[2.2.2]octane] | 0.003 | –
10 | FC(F)(F)CCCSc1nsnc1C1CC2CCC1NC2 (stereo not drawn) [Compound 20, ENDO 2-Aza-6-(4-((4,4,4-trifluorobutyl)thio)-1,2,5-thiadiaz-3-yl)-bicyclo[2.2.2]octane] | 0.0048 | –
11 | CC(C)CCCSc1nsnc1C1CC2CCC1NC2 (stereo not drawn) [Compound 17, EXO 2-Aza-6-(4-((4-methylpentyl)thio)-1,2,5-thiadiaz-3-yl)-bicyclo[2.2.2]octane] | 0.612 | –
12 | N#Cc1ccc(CSc2nsnc2C2CC3CCC2NC3)s1 (stereo not drawn) [Compound 25, ENDO 2-Aza-6-(4-((5-cyanothien-2-yl)methylthio)-1,2,5-thiadiaz-3-yl)-bicyclo[2.2.2]octane] | 0.0054 | –
13 | N#Cc1ccc(CSc2nsnc2C2CC3CCC2NC3)s1 (stereo not drawn) [Compound 26, EXO 2-Aza-6-(4-((5-cyanothien-2-yl)methylthio)-1,2,5-thiadiaz-3-yl)-bicyclo[2.2.2]octane] | 0.031 | –
14 | CCCCCCOc1nsnc1C1CC2CCC1N(C)C2 (single isomer, unassigned) [Compound 7, ENDO 2-Aza-6-(4-hexyloxy-1,2,5-thiadiaz-3-yl)-2-methyl-bicyclo[2.2.2]octane] | 0.0048 | –
15 | FC(F)(F)c1ccc(COc2nsnc2C2CC3CCC2NC3)cc1 (stereo not drawn) [Compound 33, EXO 2-Aza-6-(4-((4-trifluoromethylphenyl)methoxy)-1,2,5-thiadiaz-3-yl)-bicyclo[2.2.2]octane] | 0.208 | –

Source: patent US5834458A, “Heterocyclic compounds and their use” (Eli Lilly and Company, priority 1996, dated 1998)
